Like-named read-outs stand apart in the source and are kept apart here.
How the values were obtained:
PI 3-kinase gamma [1] = target: T1, PI 3-kinase gamma (Homo sapiens, UniProt P48736); assay: Cellular U937 AKT assay K1 (MSD); format: cell-based; conditions: U937 cells, K1 format; read-out: Assay K1 PI3Kγ IC50
PI 3-kinase alpha [2] = target: T2, PI 3-kinase alpha (Homo sapiens, UniProt P42336); assay: Kinase Glo Luminescent Kinase Assay (Kglo), assay A; format: biochemical; conditions: read-out: Assay A PI3Kα IC50
Target sequence in this assay (P42336 whole entry): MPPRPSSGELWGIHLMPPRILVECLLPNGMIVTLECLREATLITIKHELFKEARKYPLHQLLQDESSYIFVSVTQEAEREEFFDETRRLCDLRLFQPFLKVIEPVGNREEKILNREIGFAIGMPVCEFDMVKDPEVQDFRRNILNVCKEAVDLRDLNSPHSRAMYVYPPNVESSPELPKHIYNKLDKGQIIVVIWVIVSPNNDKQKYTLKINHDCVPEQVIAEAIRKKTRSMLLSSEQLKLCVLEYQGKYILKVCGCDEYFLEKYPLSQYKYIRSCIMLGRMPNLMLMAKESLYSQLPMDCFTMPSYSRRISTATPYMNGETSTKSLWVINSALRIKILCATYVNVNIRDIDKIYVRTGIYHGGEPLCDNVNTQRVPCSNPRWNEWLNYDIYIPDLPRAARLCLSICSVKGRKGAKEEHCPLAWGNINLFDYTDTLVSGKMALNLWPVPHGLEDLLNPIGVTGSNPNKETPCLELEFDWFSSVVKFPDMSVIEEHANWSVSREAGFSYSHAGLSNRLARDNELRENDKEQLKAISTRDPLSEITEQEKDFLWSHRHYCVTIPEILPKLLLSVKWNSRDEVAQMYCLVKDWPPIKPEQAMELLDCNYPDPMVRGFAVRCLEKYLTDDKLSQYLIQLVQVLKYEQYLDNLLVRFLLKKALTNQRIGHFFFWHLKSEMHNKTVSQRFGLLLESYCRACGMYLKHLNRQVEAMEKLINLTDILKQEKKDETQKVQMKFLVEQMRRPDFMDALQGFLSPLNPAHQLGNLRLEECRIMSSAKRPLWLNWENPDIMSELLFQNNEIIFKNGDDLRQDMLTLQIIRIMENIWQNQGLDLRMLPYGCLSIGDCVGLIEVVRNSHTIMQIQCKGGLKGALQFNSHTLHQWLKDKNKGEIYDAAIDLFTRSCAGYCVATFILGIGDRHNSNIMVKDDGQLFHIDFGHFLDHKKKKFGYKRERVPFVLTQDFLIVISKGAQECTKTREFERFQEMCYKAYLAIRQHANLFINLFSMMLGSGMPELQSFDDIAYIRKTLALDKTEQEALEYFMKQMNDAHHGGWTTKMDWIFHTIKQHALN
Method: Kinase Glo Luminescent Kinase Assay (Kglo) for Pb 3-Kinase Alpha (A), Pb 3-Kinase Beta (B), Vps34 (C), Pb 4-Kinase Beta (D)
The Kinase Glo Luminescent Kinase Assay (Promega, Madison/Wis., USA) is a homogeneous HTS method of measuring kinase activity by quantifying the amount of ATP remaining in solution following a kinase reaction.
L-α-phosphatidylinositol (PI), provided as 10 mg/ml solution in methanol, was transferred into a glass tube and dried under a nitrogen beam. It was then resuspended in 3% OctylGlucoside (1-0-n-octyl-beta-D-glucopyranoside) by vortexing and stored at 4° C. 5 μL of a mix of PI/OctylGlucoside with the PI 3-kinase alpha and PI 3-kinase beta subtypes, or Vps34 or PI 4-kinase beta were added. Kinase reactions were started by the addition of 5 μl of an ATP-mix containing in a final volume 10 μL 10 mM TRIS-HCl pH 7.5, 3 mM MgCl2, 50 mM NaCl, 0.05% CHAPS, 1 mM DTT and 1 μM ATP at room temperature.
All fits were performed with the program XLfit4 (ID Business Solutions, Guildford, UK).

PI 3-kinase alpha [3] = target: T2, PI 3-kinase alpha; assay: Cellular assay H1, p-Akt (S473) in Rat-1 cells, Surefire format; format: cell-based; conditions: non-asterisked data: version H1 (Surefire format), Rat-1 cells; read-out: Assay H PI3Kα IC50
Target sequence in this assay (P42336 whole entry): as above
Target sequence in this assay (Q63787 whole entry partner): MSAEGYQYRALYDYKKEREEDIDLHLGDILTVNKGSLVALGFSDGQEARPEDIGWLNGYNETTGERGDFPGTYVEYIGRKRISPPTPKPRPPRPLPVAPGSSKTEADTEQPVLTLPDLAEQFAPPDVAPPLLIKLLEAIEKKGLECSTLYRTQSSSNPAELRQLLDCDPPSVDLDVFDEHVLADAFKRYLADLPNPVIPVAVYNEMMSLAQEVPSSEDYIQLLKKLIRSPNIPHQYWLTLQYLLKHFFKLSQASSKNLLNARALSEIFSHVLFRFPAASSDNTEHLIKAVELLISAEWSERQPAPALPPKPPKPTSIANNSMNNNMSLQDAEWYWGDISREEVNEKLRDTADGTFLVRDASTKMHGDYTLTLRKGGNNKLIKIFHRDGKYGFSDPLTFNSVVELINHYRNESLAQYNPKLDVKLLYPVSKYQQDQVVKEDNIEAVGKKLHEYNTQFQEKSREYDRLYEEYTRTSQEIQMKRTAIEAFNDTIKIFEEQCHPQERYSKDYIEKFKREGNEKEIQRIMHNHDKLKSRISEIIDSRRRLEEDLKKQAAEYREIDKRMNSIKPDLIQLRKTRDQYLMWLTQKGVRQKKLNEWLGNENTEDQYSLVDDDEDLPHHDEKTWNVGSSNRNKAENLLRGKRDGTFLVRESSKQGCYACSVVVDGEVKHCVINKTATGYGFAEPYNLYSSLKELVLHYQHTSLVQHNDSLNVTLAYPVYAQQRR

PI 3-kinase beta [4] = target: T3, PI 3-kinase beta (Homo sapiens, UniProt P42338); assay: Cellular assay I1, p-Akt (S473) in Rat-1 cells, Surefire format; format: cell-based; conditions: non-asterisked data: version I1 (Surefire format), Rat-1 cells; read-out: Assay I PI3Kβ IC50
PI 3-kinase beta [5] = target: T3, PI 3-kinase beta; assay: Kinase Glo Luminescent Kinase Assay (Kglo), assay B; format: biochemical; conditions: read-out: Assay B PI3Kβ IC50
[6] = Microsomal clearance assay (M); conditions: intrinsic clearance in rat liver microsomes
Method: The experiments were performed in 96-well glass plates at 37° C. on an automated Tecan EVO platform. Test compounds at a concentration of 10 mM in pure DMSO were diluted 1:1000 in water to 10 μM. […] Reactions were initiated by the addition of 150 μL of a cofactor solution containing 2 mM NADPH.

PI 3-kinase delta [7] = target: T4, PI 3-kinase delta (Homo sapiens, UniProt O00329); assay: Cellular assay J1, p-Akt (S473) in Rat-1 cells, Surefire format; format: cell-based; conditions: non-asterisked data: version J1 (Surefire format), Rat-1 cells; read-out: Assay J PI3Kδ IC50
Target sequence in this assay (O00329 whole entry): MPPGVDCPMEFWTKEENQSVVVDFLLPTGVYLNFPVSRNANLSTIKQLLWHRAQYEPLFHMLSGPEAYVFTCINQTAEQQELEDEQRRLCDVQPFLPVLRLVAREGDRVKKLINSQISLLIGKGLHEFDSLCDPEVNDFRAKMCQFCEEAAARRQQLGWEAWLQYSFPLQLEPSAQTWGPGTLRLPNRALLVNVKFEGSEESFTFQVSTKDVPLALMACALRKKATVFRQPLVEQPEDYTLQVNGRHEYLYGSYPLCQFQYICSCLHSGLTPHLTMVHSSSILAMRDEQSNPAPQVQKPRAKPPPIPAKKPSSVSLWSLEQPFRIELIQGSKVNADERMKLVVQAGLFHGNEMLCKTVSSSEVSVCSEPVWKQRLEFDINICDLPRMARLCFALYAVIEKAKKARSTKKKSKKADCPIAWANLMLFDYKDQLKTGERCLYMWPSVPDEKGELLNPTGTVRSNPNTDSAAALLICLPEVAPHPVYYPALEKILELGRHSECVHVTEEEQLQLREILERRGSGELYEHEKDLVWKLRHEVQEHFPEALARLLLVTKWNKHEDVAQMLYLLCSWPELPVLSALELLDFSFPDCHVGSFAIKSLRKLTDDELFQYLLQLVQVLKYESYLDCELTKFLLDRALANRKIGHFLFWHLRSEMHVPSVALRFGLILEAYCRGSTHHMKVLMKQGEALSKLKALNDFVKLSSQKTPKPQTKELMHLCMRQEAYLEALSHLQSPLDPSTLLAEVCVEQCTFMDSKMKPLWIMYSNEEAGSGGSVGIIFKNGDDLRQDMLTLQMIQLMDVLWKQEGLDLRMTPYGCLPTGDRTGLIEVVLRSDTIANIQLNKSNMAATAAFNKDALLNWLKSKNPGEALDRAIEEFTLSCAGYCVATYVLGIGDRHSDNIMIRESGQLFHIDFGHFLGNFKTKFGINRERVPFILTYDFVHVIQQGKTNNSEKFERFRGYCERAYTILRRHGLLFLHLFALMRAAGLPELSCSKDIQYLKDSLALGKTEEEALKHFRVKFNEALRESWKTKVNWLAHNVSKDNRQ
Target sequence in this assay (Q63787 whole entry partner): as the sequence (Q63787 whole entry partner) above

[8] = test system: IL-8-induced neutrophil shape change in human whole blood; assay: Whole blood neutrophil shape change assay (L); format: cell-based; conditions: IL-8, human whole blood, read-out: Assay L WBSC IC50
PI 4-kinase beta = PI 4-kinase beta (Homo sapiens, UniProt Q9UBF8); assay: Kinase Glo Luminescent Kinase Assay (Kglo), assay D; format: biochemical; conditions: read-out: Assay D PI4Kβ IC50
Vps34 = Vps34 (Homo sapiens, UniProt Q8NEB9); assay: Kinase Glo Luminescent Kinase Assay (Kglo), assay C; format: biochemical; conditions: read-out: Assay C VPS34 IC50
Vps34, sequence (Q8NEB9 whole entry, species assumed): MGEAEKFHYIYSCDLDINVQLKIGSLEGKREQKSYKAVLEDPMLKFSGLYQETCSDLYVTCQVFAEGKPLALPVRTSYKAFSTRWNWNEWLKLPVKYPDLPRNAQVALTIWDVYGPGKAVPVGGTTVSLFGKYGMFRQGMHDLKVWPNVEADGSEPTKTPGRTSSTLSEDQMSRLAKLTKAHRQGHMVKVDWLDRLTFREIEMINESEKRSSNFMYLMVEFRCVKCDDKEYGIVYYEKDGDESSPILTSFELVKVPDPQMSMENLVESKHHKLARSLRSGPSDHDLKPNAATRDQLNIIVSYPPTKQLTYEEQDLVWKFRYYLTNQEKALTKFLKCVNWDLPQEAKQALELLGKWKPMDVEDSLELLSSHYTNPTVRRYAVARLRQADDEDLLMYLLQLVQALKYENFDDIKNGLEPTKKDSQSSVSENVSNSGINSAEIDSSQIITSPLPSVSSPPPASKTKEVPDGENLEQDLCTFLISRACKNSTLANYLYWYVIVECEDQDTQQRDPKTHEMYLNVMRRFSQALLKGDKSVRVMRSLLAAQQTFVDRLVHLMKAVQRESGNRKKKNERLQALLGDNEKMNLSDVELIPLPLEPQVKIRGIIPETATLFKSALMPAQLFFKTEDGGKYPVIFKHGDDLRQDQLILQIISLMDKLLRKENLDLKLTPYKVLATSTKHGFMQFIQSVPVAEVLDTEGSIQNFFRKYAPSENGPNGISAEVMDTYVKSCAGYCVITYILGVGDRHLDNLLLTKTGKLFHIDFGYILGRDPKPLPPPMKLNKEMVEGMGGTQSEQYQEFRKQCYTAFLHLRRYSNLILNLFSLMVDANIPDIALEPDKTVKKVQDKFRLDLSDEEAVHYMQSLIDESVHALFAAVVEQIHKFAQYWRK

PI 3-kinase delta [9] = target: T4, PI 3-kinase delta; assay: TR-FRET Adapta assay, assay F; conditions: read-out: Assay F PI3Kδ IC50
Target sequence in this assay (O00329 whole entry): as the sequence (O00329 whole entry) above
Target sequence in this assay (P27986 461-568 partner): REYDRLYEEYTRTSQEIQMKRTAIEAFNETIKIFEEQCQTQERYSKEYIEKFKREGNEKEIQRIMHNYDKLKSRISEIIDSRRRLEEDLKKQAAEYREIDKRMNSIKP

mTOR = mTOR (Homo sapiens, UniProt P42345); assay: Lanthascreen kinase binding assay, assay G; conditions: read-out: Assay G mTOR IC50
Method: Lanthascreen™ Kinase Binding Assay for mTOR (G)
Binding of an inhibitor to the kinase competes for binding with the tracer, resulting in a loss of FRET.
50 nL of compound dilutions were dispensed onto white 384-well small volume polystyrene plate.

PI 3-kinase gamma [10] = target: T1, PI 3-kinase gamma; assay: TR-FRET Adapta assay, assay E; format: biochemical; conditions: read-out: Assay E PI3Kγ IC50

T1 sequence (P48736 whole entry): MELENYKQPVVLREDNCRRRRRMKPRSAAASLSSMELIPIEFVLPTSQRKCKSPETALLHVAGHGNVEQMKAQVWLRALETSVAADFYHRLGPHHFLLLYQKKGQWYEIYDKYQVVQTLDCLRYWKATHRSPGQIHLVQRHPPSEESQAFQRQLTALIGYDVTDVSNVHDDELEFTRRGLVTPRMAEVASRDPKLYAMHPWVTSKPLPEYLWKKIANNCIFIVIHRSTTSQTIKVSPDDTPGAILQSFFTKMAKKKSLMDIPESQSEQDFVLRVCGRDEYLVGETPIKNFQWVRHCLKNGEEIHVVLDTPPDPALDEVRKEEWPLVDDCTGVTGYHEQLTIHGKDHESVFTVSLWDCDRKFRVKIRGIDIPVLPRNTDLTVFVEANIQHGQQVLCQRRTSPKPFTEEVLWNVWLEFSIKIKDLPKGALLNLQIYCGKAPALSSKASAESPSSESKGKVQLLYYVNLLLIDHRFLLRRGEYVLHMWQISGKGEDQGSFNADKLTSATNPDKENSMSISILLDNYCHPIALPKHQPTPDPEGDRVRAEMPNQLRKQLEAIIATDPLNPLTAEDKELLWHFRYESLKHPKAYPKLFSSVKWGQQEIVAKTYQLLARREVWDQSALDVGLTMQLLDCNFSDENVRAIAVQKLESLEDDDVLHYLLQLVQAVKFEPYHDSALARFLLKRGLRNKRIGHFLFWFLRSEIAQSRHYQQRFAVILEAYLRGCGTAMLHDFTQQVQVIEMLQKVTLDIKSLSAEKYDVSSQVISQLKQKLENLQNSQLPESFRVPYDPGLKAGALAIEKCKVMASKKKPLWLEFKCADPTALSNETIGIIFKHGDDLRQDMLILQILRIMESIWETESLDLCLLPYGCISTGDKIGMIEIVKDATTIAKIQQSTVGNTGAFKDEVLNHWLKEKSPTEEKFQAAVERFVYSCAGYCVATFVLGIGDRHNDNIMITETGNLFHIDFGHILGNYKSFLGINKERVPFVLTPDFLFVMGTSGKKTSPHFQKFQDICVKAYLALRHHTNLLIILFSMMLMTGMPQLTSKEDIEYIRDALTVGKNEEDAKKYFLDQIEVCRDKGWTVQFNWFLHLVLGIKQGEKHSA

Compound	IC50 (PI 3-kinase gamma [1]) [nM]	IC50 (PI 3-kinase alpha [2]) [nM]	IC50 (PI 3-kinase alpha [3]) [nM]	IC50 (PI 3-kinase beta [4]) [nM]	IC50 (PI 3-kinase beta [5]) [nM]	Assay M RLM CI(int) [6] [µL/min/mg]	IC50 (PI 3-kinase delta [7]) [nM]	IC50 ([8]; Homo sapiens, Neutrophil) [nM]	IC50 (PI 4-kinase beta) [nM]	IC50 (Vps34) [nM]	IC50 (PI 3-kinase delta [9]) [nM]	IC50 (mTOR) [nM]	IC50 (PI 3-kinase gamma [10]) [nM]	IC50 [8] [nM]
Cc1ccc(S(=O)(=O)N[C@H]2CC[C@H](O)CC2)cc1-c1cnc(N)c(-n2cccn2)n1 [Example 103, 3-(5-Amino-6-(1H-pyrazol-1-yl)pyrazin-2-yl)-N-((1r,4r)-4-hydroxycyclohexyl)-4-methylbenzenesulfonamide]	28	390	2250	3250	1880	29	850	515	2740	> 9100	150	> 9100	13	
Cc1ccc(S(=O)(=O)N[C@H]2CC[C@@](C)(O)CC2)cc1-c1cnc(N)c(-n2cncn2)n1 [Example 69b, 3-(5-amino-6-(1H-1,2,4-triazol-1-yl)pyrazin-2-yl)-N-(cis-4-hydroxy-4-methylcyclohexyl)-4-methylbenzenesulfonamide]	135	390	6680	8470	1400	227	5180		> 10000	> 10000	690	9600	57	1950
Cc1cnn(-c2nc(-c3cc(S(=O)(=O)N[C@H]4CC[C@H](O)CC4)ccc3C)cnc2N)c1 [Example 111, 3-(5-Amino-6-(4-methyl-1H-pyrazol-1-yl)pyrazin-2-yl)-N-((1r,4r)-4-hydroxycyclohexyl)-4-methylbenzenesulfonamide]	20	180	1470	> 10000	1980	74	460	637	1960	> 9100	60	> 9100	18	
Cc1ccc(S(=O)(=O)NC2CC3(CC(O)C3)C2)cc1-c1cnc(N)c(-n2cncn2)n1 (centres unmarked) [Example 67, 3-(5-Amino-6-(1H-1,2,4-triazol-1-yl)pyrazin-2-yl)-N-(6-hydroxyspiro[3.3]heptan-2-yl)-4-methylbenzenesulfonamide]	68	90	1330	2930	860	36	920	249	7400	1800	160	2200	3	
Cc1cc(-c2nc(-c3cc(S(=O)(=O)NC4CCC(C)(O)CC4)ccc3C)cnc2N)ccn1 (centres unmarked) [Example 129.19, 3-(5-amino-6-(2-methylpyridin-4-yl)pyrazin-2-yl)-N-(4-hydroxy-4-methylcyclohexyl)-4-methylbenzenesulfonamide]	251	330	8580	> 10000	5110	21	4370	3430	7200	> 9100	470	3020	66	
Cc1ccc(S(=O)(=O)NC[C@H]2C[C@@H](O)C2)cc1-c1cnc(N)c(-n2cncn2)n1 [Example 72, 3-(5-Amino-6-(1H-1,2,4-triazol-1-yl)pyrazin-2-yl)-N-(((1s,3s)-3-hydroxycyclobutyl)methyl)-4-methylbenzenesulfonamide]	293	580	3110	6030	2670	41	2640	723	> 9100	> 9100	390	> 9100	34	
Cc1ccc(S(=O)(=O)NCC2(CO)CCCCC2)cc1-c1cnc(N)c(-n2cncn2)n1 [Example 127.52]	52	140	970	6280	340	>924	1100	1770	3100	> 10000	330	3600	9	
Cc1ccc(S(=O)(=O)N[C@H]2CC[C@H](O)CC2)cc1-c1cnc(N)c(-n2cncn2)n1 [Example 15, Trans-3-(5-Amino-6-(1H-1,2,4-triazol-1-yl)pyrazin-2-yl)-N-(4-hydroxycyclohexyl)-4-methylbenzenesulfonamide]	61	160	1930	2010	1930	24	1450	166	5680	> 9100	150	> 9100	18	
CCCc1noc(-c2nc(-c3cc(S(=O)(=O)N[C@H]4CC[C@H](O)CC4)ccc3C)cnc2N)n1 [Example 140, Trans-3-[5-Amino-6-(3-propyl-[1,2,4]oxadiazol-5-yl)-pyrazin-2-yl]-N-(4-hydroxy-cyclohexyl)-4-methyl-benzene sulfonamide]	51	240	1110	6380	7160	82	840	817	> 9100	> 9100	90	8820	16	
CCN1CCC[C@@H]1CNS(=O)(=O)c1ccc(C)c(-c2cnc(N)c(-n3cncn3)n2)c1 [Example 127.12]	359	3500	6560	1540	1500	233	800	1210	> 10000	> 10000	570	> 10000	91	
Cc1ccc(S(=O)(=O)NCCC(C)(C)O)cc1-c1cnc(N)c(-c2ccncc2)n1 [Example 119.27]	128	170	470	9240	4970	87	910	726	5750	> 9100	120	4780	35	
Cc1ccc(S(=O)(=O)NCC2(C)COC2)cc1-c1cnc(N)c(-c2cn(C)nc2C)n1 [Example 17, 3-[5-Amino-6-(1,3-dimethyl-1H-pyrazol-4-yl)-pyrazin-2-yl]-4-methyl-N-(3-methyl-oxetan-3-ylmethyl)-benzenesulfonamide]	51	220	2800	8250	900	34	1920	166	8300	> 10000	590	6100	10	
Cc1ncn(-c2nc(-c3cc(S(=O)(=O)NCCC(C)(C)O)ccc3C)cnc2N)n1 [Example 65, 3-(5-Amino-6-(3-methyl-1H-1,2,4-triazol-1-yl)pyrazin-2-yl)-N-(3-hydroxy-3-methylbutyl)-4-methylbenzenesulfonamide]	155	440	1450	> 10000	4030	87	1440	802	> 9100	> 9100	240	> 9100	22	
Cc1cn(-c2nc(-c3cc(S(=O)(=O)N[C@H]4CC[C@H](O)CC4)ccc3C)cnc2N)cn1 [Example 56, Trans-3-(5-Amino-6-(4-methyl-1H-imidazol-1-yl)pyrazin-2-yl)-N-(-4-hydroxycyclohexyl)-4-methylbenzenesulfonamide]	129	290	4400	5880	1750	24	3120	211	7270	3520	80	2380	19	

Reference: patent US10004732B2 (Novartis AG, priority 2014, dated 2018)
